In patent publication US20120029187A1, “HALOALKYLSULFONANILIDE DERIVATIVE” (Nissan Chemical Industries, Ltd., priority 2009, published 2012):

Legend:
Assay type in all cases: in vivo
transplanted rice = test: Test Example 1: preemergence treatment under submerged conditions, effect on crop; settings: dose 2.52 g/a
Summary of the method: (§1)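 Flooded-paddy preemergence assay; EC diluted with water, surface-applied at weed seeding; doses g/a; rice transplanted at 2.5 leaves; 0–5 mortality score after 3 weeks.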

giant foxtail [1] = test: Test Example 3: herbicidal effects in soil treatment; settings: dose 3.2 g/a
Summary of the method: (§2)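 Seeds were sown in sterilized diluvial soil and covered with about 1.5 cm of soil. Compounds, formulated as emulsifiable concentrates and diluted with water, were sprayed evenly over the soil surface at set doses in g/a. Herbicidal effect was scored on a rating scale three weeks later.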

redroot pigweed [2] = test: as above; settings: dose 3.2 g/a
Summary of the method: as §2

wild oat [3] = test: as above; settings: dose 3.2 g/a
Summary of the method: as §2

large crabgrass [4] = test: as above; settings: dose 3.2 g/a
Summary of the method: as §2

barnyardgrass [5] = test: as above; settings: dose 3.2 g/a
Summary of the method: as §2

water foxtail [6] = test: as above; settings: dose 3.2 g/a
Summary of the method: as §2

posumbu knotweed [7] = test: as above; settings: dose 3.2 g/a
Summary of the method: as §2

common ragweed [8] = test: as above; settings: dose 3.2 g/a
Summary of the method: as §2

velvetleaf [9] = test: as above; settings: dose 3.2 g/a
Summary of the method: as §2

common lambsquater [10] = test: as above; settings: dose 3.2 g/a
Summary of the method: as §2

Italian ryegrass [11] = test: as above; settings: dose 3.2 g/a
Summary of the method: as §2

common chickweed [12] = test: as above; settings: dose 3.2 g/a
Summary of the method: as §2

bulrush [13] = test: Test Example 1: herbicidal effects in preemergence treatment under submerged conditions; settings: dose 2.52 g/a
Summary of the method: as §1

barnyardgrass [14] = test: as above; settings: dose 2.52 g/a
Summary of the method: as §1

ducksalad [15] = test: as above; settings: dose 2.52 g/a
Summary of the method: as §1

bulrush [16] = test: Test Example 2: herbicidal effects during the vegetation period under submerged conditions; settings: treatment during the vegetation period under submerged conditions; dose 2.52 g/a
Summary of the method: (§3)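 Barnyardgrass, bulrush and ducksalad were co-sown in alluvial soil flooded to 4 cm and grown in a greenhouse at 25 to 30° C. At the 1- or 2-leaf stage, water-diluted emulsifiable concentrates went onto the water surface at set doses (g/a). Herbicidal effect was scored three weeks later on a graded scale.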

barnyardgrass [17] = test: as above; settings: treatment during the vegetation period under submerged conditions; dose 2.52 g/a
Summary of the method: as §3

ducksalad [18] = test: as above; settings: treatment during the vegetation period under submerged conditions; dose 2.52 g/a
Summary of the method: as §3

giant foxtail [19] = test: Test Example 4: herbicidal effect in foliage treatment; settings: dose 3.2 g/a
Summary of the method: (§4)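 Visual herbicidal scores on a graded scale were recorded three weeks after foliar application. Compounds went on as diluted emulsifiable concentrates at predetermined g/a to plants grown 14 days in a 25 to 30° C greenhouse.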

redroot pigweed [20] = test: as above; settings: dose 3.2 g/a
Summary of the method: as §4

wild oat [21] = test: as above; settings: dose 3.2 g/a
Summary of the method: as §4

large crabgrass [22] = test: as above; settings: dose 3.2 g/a
Summary of the method: as §4

barnyardgrass [23] = test: as above; settings: dose 3.2 g/a
Summary of the method: as §4

water foxtail [24] = test: as above; settings: dose 3.2 g/a
Summary of the method: as §4

posumbu knotweed [25] = test: as above; settings: dose 3.2 g/a
Summary of the method: as §4

common ragweed [26] = test: as above; settings: dose 3.2 g/a
Summary of the method: as §4

velvetleaf [27] = test: as above; settings: dose 3.2 g/a
Summary of the method: as §4

beadstraw = test: as above; settings: dose 3.2 g/a
Summary of the method: as §4

common lambsquater [28] = test: as above; settings: dose 3.2 g/a
Summary of the method: as §4

Italian ryegrass [29] = test: as above; settings: dose 3.2 g/a
Summary of the method: as §4

common chickweed [30] = test: as above; settings: dose 3.2 g/a
Summary of the method: as §4

[31] = three weeks after the application

## CCN1COCN(Cc2ccccc2N(C(=O)OCC(C)C)S(=O)(=O)C(F)(F)F)C1=O [IV-8]
Transplanted rice
  a: transplanted rice, effect on crop (evaluation scale 0-5): 0 (mortality of less than 5% (almost ineffective))
Giant foxtail [1]
  herbicidal effect, E: giant foxtail: 1 (mortality of at least 5% and less than 20%)
Redroot pigweed [2]
  herbicidal effect, K: redroot pigweed: 0 (mortality of less than 5% (almost ineffective))
Wild oat [3]
  herbicidal effect, F: wild oat: 0 (mortality of less than 5% (almost ineffective))
Large crabgrass [4]
  herbicidal effect, D: large crabgrass: 1 (mortality of at least 5% and less than 20%)
Barnyardgrass [5]
  herbicidal effect, A: barnyardgrass: 4 (mortality of at least 70% and less than 90%)
Water foxtail [6]
  herbicidal effect, G: water foxtail: 5 (mortality of 90% or above (nearly complete death))
Posumbu knotweed [7]
  herbicidal effect, M: posumbu knotweed: 0 (mortality of less than 5% (almost ineffective))
Common ragweed [8]
  herbicidal effect, J: common ragweed: 0 (mortality of less than 5% (almost ineffective))
Velvetleaf [9]
  herbicidal effect, I: velvetleaf: 0 (mortality of less than 5% (almost ineffective))
Common lambsquater [10]
  herbicidal effect, L: common lambsquater: 0 (mortality of less than 5% (almost ineffective))
Italian ryegrass [11]
  herbicidal effect, H: Italian ryegrass: 0 (mortality of less than 5% (almost ineffective))
Common chickweed [12]
  herbicidal effect, N: common chickweed: 0 (mortality of less than 5% (almost ineffective))
Bulrush [13]
  B: bulrush, herbicidal effect (evaluation scale 0-5): 5 (mortality of 90% or above (nearly complete death))
Barnyardgrass [14]
  A: barnyardgrass, herbicidal effect (evaluation scale 0-5): 5 (mortality of 90% or above (nearly complete death))
Ducksalad [15]
  C: ducksalad, herbicidal effect (evaluation scale 0-5): 4 (mortality of at least 70% and less than 90%)
Bulrush [16]
  B: bulrush, herbicidal effect (evaluation scale 0-5): 5 (mortality of 90% or above (nearly complete death))
Barnyardgrass [17]
  A: barnyardgrass, herbicidal effect (evaluation scale 0-5): 5 (mortality of 90% or above (nearly complete death))
Ducksalad [18]
  C: ducksalad, herbicidal effect (evaluation scale 0-5): 4 (mortality of at least 70% and less than 90%)
Giant foxtail [19]; [31]
  E: giant foxtail, herbicidal effect: 4 (mortality of at least 70% and less than 90%)
Redroot pigweed [20]; [31]
  K: redroot pigweed, herbicidal effect: 0 (mortality of less than 5% (almost ineffective))
Wild oat [21]; [31]
  F: wild oat, herbicidal effect: 0 (mortality of less than 5% (almost ineffective))
Large crabgrass [22]; [31]
  D: large crabgrass, herbicidal effect: 4 (mortality of at least 70% and less than 90%)
Barnyardgrass [23]; [31]
  A: barnyardgrass, herbicidal effect: 5 (mortality of 90% or above (nearly complete death))
Water foxtail [24]; [31]
  G: water foxtail, herbicidal effect: 5 (mortality of 90% or above (nearly complete death))
Posumbu knotweed [25]; [31]
  M: posumbu knotweed, herbicidal effect: 0 (mortality of less than 5% (almost ineffective))
Common ragweed [26]; [31]
  J: common ragweed, herbicidal effect: 3 (mortality of at least 40% and less than 70%)
Velvetleaf [27]; [31]
  I: velvetleaf, herbicidal effect: 3 (mortality of at least 40% and less than 70%)
beadstraw; [31]
  O: beadstraw, herbicidal effect: 3 (mortality of at least 40% and less than 70%)
Common lambsquater [28]; [31]
  L: common lambsquater, herbicidal effect: 0 (mortality of less than 5% (almost ineffective))
Italian ryegrass [29]; [31]
  H: Italian ryegrass, herbicidal effect: 0 (mortality of less than 5% (almost ineffective))
Common chickweed [30]; [31]
  N: common chickweed, herbicidal effect: 3 (mortality of at least 40% and less than 70%)

## CCOC(=O)N(c1ccccc1CN1C(=O)COCC1C)S(=O)(=O)C(F)(F)F (stereo not shown) [Compound I-14]
Transplanted rice
  a: transplanted rice, effect on crop (evaluation scale 0-5): 0 (mortality of less than 5% (almost ineffective))
Giant foxtail [1]
  E: giant foxtail, herbicidal effect (evaluation scale 0-5): 5 (mortality of 90% or above (nearly complete death))
Redroot pigweed [2]
  K: redroot pigweed, herbicidal effect (evaluation scale 0-5): 5 (mortality of 90% or above (nearly complete death))
Wild oat [3]
  F: wild oat, herbicidal effect (evaluation scale 0-5): 4 (mortality of at least 70% and less than 90%)
Large crabgrass [4]
  D: large crabgrass, herbicidal effect (evaluation scale 0-5): 5 (mortality of 90% or above (nearly complete death))
Barnyardgrass [5]
  A: barnyardgrass, herbicidal effect (evaluation scale 0-5): 5 (mortality of 90% or above (nearly complete death))
Water foxtail [6]
  G: water foxtail, herbicidal effect (evaluation scale 0-5): 5 (mortality of 90% or above (nearly complete death))
Posumbu knotweed [7]
  M: posumbu knotweed, herbicidal effect (evaluation scale 0-5): 5 (mortality of 90% or above (nearly complete death))
Common ragweed [8]
  J: common ragweed, herbicidal effect (evaluation scale 0-5): 5 (mortality of 90% or above (nearly complete death))
Velvetleaf [9]
  I: velvetleaf, herbicidal effect (evaluation scale 0-5): 5 (mortality of 90% or above (nearly complete death))
Common lambsquater [10]
  L: common lambsquater, herbicidal effect (evaluation scale 0-5): 5 (mortality of 90% or above (nearly complete death))
Italian ryegrass [11]
  H: Italian ryegrass, herbicidal effect (evaluation scale 0-5): 5 (mortality of 90% or above (nearly complete death))
Common chickweed [12]
  N: common chickweed, herbicidal effect (evaluation scale 0-5): 5 (mortality of 90% or above (nearly complete death))
Bulrush [13]
  B: bulrush, herbicidal effect (evaluation scale 0-5): 5 (mortality of 90% or above (nearly complete death))
Barnyardgrass [14]
  A: barnyardgrass, herbicidal effect (evaluation scale 0-5): 5 (mortality of 90% or above (nearly complete death))
Ducksalad [15]
  C: ducksalad, herbicidal effect (evaluation scale 0-5): 5 (mortality of 90% or above (nearly complete death))
Bulrush [16]
  B: bulrush, herbicidal effect (evaluation scale 0-5): 5 (mortality of 90% or above (nearly complete death))
Barnyardgrass [17]
  A: barnyardgrass, herbicidal effect (evaluation scale 0-5): 5 (mortality of 90% or above (nearly complete death))
Ducksalad [18]
  C: ducksalad, herbicidal effect (evaluation scale 0-5): 5 (mortality of 90% or above (nearly complete death))
Giant foxtail [19]; three weeks after application
  E: giant foxtail, herbicidal effect: 4 (mortality of at least 70% and less than 90%)
Redroot pigweed [20]; three weeks after application
  K: redroot pigweed, herbicidal effect: 4 (mortality of at least 70% and less than 90%)
Wild oat [21]; three weeks after application
  F: wild oat, herbicidal effect: 0 (mortality of less than 5% (almost ineffective))
Large crabgrass [22]; three weeks after application
  D: large crabgrass, herbicidal effect: 4 (mortality of at least 70% and less than 90%)
Barnyardgrass [23]; three weeks after application
  A: barnyardgrass, herbicidal effect: 5 (mortality of 90% or above (nearly complete death))
Water foxtail [24]; three weeks after application
  G: water foxtail, herbicidal effect: 5 (mortality of 90% or above (nearly complete death))
Posumbu knotweed [25]; three weeks after application
  M: posumbu knotweed, herbicidal effect: 4 (mortality of at least 70% and less than 90%)
Common ragweed [26]; three weeks after application
  J: common ragweed, herbicidal effect: 4 (mortality of at least 70% and less than 90%)
Velvetleaf [27]; three weeks after application
  I: velvetleaf, herbicidal effect: 5 (mortality of 90% or above (nearly complete death))
beadstraw; three weeks after application
  O: beadstraw, herbicidal effect: 4 (mortality of at least 70% and less than 90%)
Common lambsquater [28]; three weeks after application
  L: common lambsquater, herbicidal effect: 5 (mortality of 90% or above (nearly complete death))
Italian ryegrass [29]; three weeks after application
  H: Italian ryegrass, herbicidal effect: 5 (mortality of 90% or above (nearly complete death))
Common chickweed [30]; three weeks after application
  N: common chickweed, herbicidal effect: 4 (mortality of at least 70% and less than 90%)
